Measurements published in patent US20080038349A1, “Peptide-Pna Chimera Targeting Inducible Nitric Oxide Synthetase” (priority 2004, published 2008).
{Gly} = glycine residue at the PNA end written 3'; {Lys} = lysine residue at the PNA end written 5'

Assays:
macrophags iNOS = conditions: in vitro, macrophages; cited from earlier work
[1] = tested on: Sense 5′-3′: GAA AGA GGA AAA GG; experiment: Hybridization experiments (Tm from UV melting curves); type: binding; conditions: for Tm (temperature of melting, hybridization): vs sense DNA, duplex 5 μM, 10 mM phosphate buffer, 100 mM NaCl, 0.1 mM EDTA, pH=7
Protocol: The DNA sequences used in the hybridization experiments were purchased from (Sigma; USA). A PNA sequence was purchased from Bio-Synthesis Inc. (Lewisville, USA). All hybrid samples reported were first incubated at 90° C. for 5 minutes, then slowly cooled at room temperature. The Duplex concentration of the various samples was 5 μM. All hybridization experiments were carried out in a 10 mM phosphate buffer, 100 mM NaCl, 0.1 mM EDTA, pH=7. Temperature was monitored by an internal thermocouple, at an accuracy of ±0.3° C. Melting curves were recorded by heating the samples (1° C./min) with a 2-min. hold time by UV signal at 260 nm. Melting temperatures were taken as the maximum of the first derivative of the melting curves. UV absorbance measurements were performed on a Varian Cart 5E UV-VIS-NIR spectrophotometer equipped with a Cary temperature controller, in 1-cm quartz cells.
The modifications on the PNA chain although improving bioavailability can diminish activity (hybridization). To examine the effect of modifications on activity properties an experiment was conducted to examine the hybridization properties (determined by changes in temperature of melting or Tm) KBP-10 sequence. Tm value (39.5° C.) was almost the same as predicted calculated value based on sequence (40° C.).

Multiple Sclerosis Model = experiment: Multiple sclerosis model (MOG 35-55 inoculated mice); type: in vivo; conditions: 10 mg/kg for 10 consecutive days
Protocol: Mice (female, Cpb 57B1/6; Harlan) were inoculated with ecephalitogenic peptide (MOG 35-55; synthesized at the Hebrew university) emulsified with CFA and pertussis toxin (Sigma) and in the same time were treated with CH(K)6HC-O-5′CTTTCTCCTTTTCC3′-O-HAIYPRH (KBP-11; 10 mg/kg; n=3) or with vehicle solution (control group; n=4) for 10 consecutive days, starting a day after the inoculation of MOG.
At the end the experiment (day 30) animals were scarified and brain tissue were send to histological (H&E analysis) and immunohistochemical (iNOS expression) analysis.

cells in culture = conditions: cited from earlier work
[2] = starting a day after MOG inoculation, n=3

Substance: 3′-Gly-CTTTCTCCTTTTCC-Lys 5′ (all peptide nucleic acid (PNA), 5' {Lys}, 3' {Gly}) [PNA targeting macrophage iNOS]
- iNOS expression (macrophags iNOS): specifically diminished its expression

Substance: CH(K)6HC-O-5′CTTTCTCCTTTTCC3′-O-HAIYPRH [KBP-11]
- Effect of peptide modification on hybridization properties ([1]; modified PNA vs. ODN, FIG. 1): did not affect the hybridization properties
- Tm (temperature of melting, hybridization) [1]: 39.00 °C
- Incidence (Multiple Sclerosis Model; [2]): 1/3
- Mean disease duration (Multiple Sclerosis Model; [2]): 6 days
- Mean Score (Disease burden) (Multiple Sclerosis Model; clinical score 0-6): 0.4 ± 0.16

Substance: CHK6HC
- Transfection of cells in culture (cells in culture): improved transfection of cells in culture

Substance: CTTTCTCCTTTTCC (chemistry not given here) [Oligodeoxynucleotide, reference compound]
- Tm (temperature of melting, hybridization) [1]: 46.96 °C
